These results are taken from patent US6521641B1, “Male anti-fertility agents” (Allergan, Inc., priority 1998, dated 2003).

In the assay the test system is Sprague-Dawley rats. Put plainly: Topical administration of AGN 193109 to rats with Recovery group (Example 4). It counts as in vivo, rat. Here is the method: This experiment is conducted as indicated in Example 2, except that the drug is 193109 rather than AGN 194310, and a Recovery group is monitored for a period of time post-treatment as in Example 3. Dosages of the '109 drug is the same as for the topical treatment with the '310 drug.

The mark [1] stands for this setting: rats, topical, at the effective dose.

On to `Cc1ccc(C2=CCC(C)(C)c3ccc(C#Cc4ccc(C(=O)O)cc4)cc32)cc1` [AGN 193109], for which, under “male rats 12 weeks after administration”, the “reversibility (testes histology)” value is “repopulation of the tubules with males gametes in various stages of development”. In addition, under setting [1], the “histological analysis of the testes” value was “absence of primary spermatocytes, spermatids and spermatozoa in the majority of animals' seminiferous tubules”; the “spermatogenic arrest (examination of the testes)” value is given as “spermatogenic arrest can be seen within thirty days after initiation of treatment”.
